Reference: ChEMBL document CHEMBL1201862, “PubChem BioAssay data set” (2004)
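Step 1: Grow cells in 96-well plates. Step 2: Expose to compound for 48 hours at 5 concentrations. Step 3: Interpolate endpoints linearly; if unreached, use highest concentration. At the GI50, growth is halved.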 Active and inactive are the calls of the source. Cut-off read from the data, not from the text of the source: active = GI50 up to about 1.1 µM and inactive = higher.

Assays:
Test in all cases: DTP human tumour cell line panel, 48 h
786-0 = tested on: 786-0
A549 = tested on: A549
BT-549 = tested on: BT-549
HCT-116 = tested on: HCT-116
HOP-92 = tested on: HOP-92
K562 = tested on: K562
M14 = tested on: M14
MDA-MB-435 = tested on: MDA-MB-435
MDA-N = tested on: MDA-N
Malme-3M = tested on: Malme-3M
NCI-H460 = tested on: NCI-H460
NCI-H522 = tested on: NCI-H522
OVCAR-3 = tested on: OVCAR-3
PC-3 = tested on: PC-3
RXF 393 = tested on: RXF 393
SN12C = tested on: SN12C
SNB-75 = tested on: SNB-75
SW-620 = tested on: SW-620
U-251 = tested on: U-251

Measured: GI50

Cc1ccc(C2(c3ccc(C)c(O)c3C)CCN(C)CC2)c(C)c1O
inactive: 786-0 51.2 µM | A549 > 100 µM | BT-549 > 100 µM | HCT-116 38.5 µM | HOP-92 > 100 µM | K562 84.7 µM | M14 45.8 µM | MDA-MB-435 92.9 µM | MDA-N 58.5 µM | Malme-3M 52.7 µM | NCI-H460 15.7 µM | NCI-H522 > 100 µM | OVCAR-3 54 µM | PC-3 35 µM | RXF 393 78.5 µM | SN12C 37.2 µM | SNB-75 > 100 µM | SW-620 88.1 µM | U-251 39.4 µM

COc1ccc(N2C(=O)CC(c3c[nH]c4ncccc34)C2=O)cc1 (centres undefined)
inactive: 786-0 22.3 µM | A549 > 100 µM | BT-549 17.5 µM | HCT-116 22.5 µM | HOP-92 19.7 µM | K562 8.09 µM | M14 23 µM | MDA-MB-435 14.4 µM | MDA-N 14.2 µM | Malme-3M 22 µM | NCI-H460 > 100 µM | NCI-H522 7.98 µM | OVCAR-3 20.7 µM | PC-3 19.4 µM | RXF 393 23.9 µM | SN12C 18.5 µM | SNB-75 > 100 µM | SW-620 18.2 µM | U-251 > 100 µM

COC(=O)C1Cc2c(C)cccc2C1=O (centres undefined)
inactive: 786-0 > 100 µM | A549 > 100 µM | BT-549 > 100 µM | HCT-116 > 100 µM | HOP-92 > 100 µM | K562 66.7 µM | M14 > 100 µM | MDA-MB-435 > 100 µM | MDA-N > 100 µM | Malme-3M > 100 µM | NCI-H460 > 100 µM | NCI-H522 > 100 µM | OVCAR-3 > 100 µM | PC-3 > 100 µM | RXF 393 > 100 µM | SN12C > 100 µM | SNB-75 > 100 µM | SW-620 > 100 µM | U-251 > 100 µM

C=CCN(c1cc(OCc2ccccc2)c2c(c1)c(C)cn2S(=O)(=O)c1ccccc1)S(C)(=O)=O
inactive: 786-0 > 100 µM | A549 > 100 µM | BT-549 > 100 µM | HCT-116 > 100 µM | HOP-92 > 100 µM | K562 > 100 µM | M14 > 100 µM | MDA-MB-435 > 100 µM | MDA-N > 100 µM | Malme-3M > 100 µM | NCI-H460 > 100 µM | NCI-H522 > 100 µM | OVCAR-3 > 100 µM | PC-3 > 100 µM | RXF 393 > 100 µM | SN12C > 100 µM | SNB-75 > 100 µM | SW-620 > 100 µM | U-251 > 100 µM

Cc1ccc(OCCn2cc(Nc3ccccc3)c(=O)n(CCOc3ccc(C)cc3)c2=O)cc1
inactive: 786-0 48 µM | A549 28.8 µM | BT-549 > 100 µM | HCT-116 > 100 µM | HOP-92 44.5 µM | K562 70.5 µM | M14 > 100 µM | MDA-MB-435 > 100 µM | MDA-N > 100 µM | Malme-3M 80 µM | NCI-H460 > 100 µM | NCI-H522 97.7 µM | OVCAR-3 > 100 µM | PC-3 93.5 µM | RXF 393 23.5 µM | SN12C > 100 µM | SNB-75 > 100 µM | SW-620 > 100 µM | U-251 51.6 µM

CCCCCC(O)[C@H]1C(=O)C[C@@H](O[Si](C)(C)C(C)(C)C)[C@@H]1/C=C/CCOCc1ccccc1 (some centres undefined)
inactive: 786-0 11.4 µM | A549 18 µM | BT-549 8.07 µM | HCT-116 6.9 µM | HOP-92 12.4 µM | K562 > 36.5 µM | M14 12.6 µM | MDA-MB-435 7.31 µM | MDA-N 9.51 µM | Malme-3M 15.3 µM | NCI-H460 16.9 µM | NCI-H522 3.88 µM | OVCAR-3 13.7 µM | PC-3 12.1 µM | RXF 393 12.2 µM | SN12C 19.1 µM | SNB-75 17.8 µM | SW-620 13.1 µM | U-251 12.1 µM

COc1cc(CNCc2cc(OC)c(OC)c(OC)c2)cc(OC)c1OC
inactive: 786-0 > 10 µM | A549 > 10 µM | BT-549 > 10 µM | HCT-116 > 10 µM | HOP-92 > 6.07 µM | K562 > 4.95 µM | M14 > 10 µM | MDA-MB-435 > 10 µM | MDA-N > 10 µM | Malme-3M > 10 µM | NCI-H460 > 10 µM | NCI-H522 > 4.88 µM | OVCAR-3 > 10 µM | PC-3 > 10 µM | RXF 393 > 10 µM | SN12C > 10 µM | SNB-75 > 8.38 µM | SW-620 > 10 µM | U-251 > 10 µM

CCOC(=O)C(O)(C(=O)OCC)c1cc(C(C)(C)C)c(O)c(C(C)(C)C)c1
inactive: 786-0 51.4 µM | A549 54.3 µM | BT-549 39.2 µM | HCT-116 35.1 µM | HOP-92 26.9 µM | K562 33.6 µM | M14 39 µM | MDA-MB-435 37.2 µM | MDA-N 36.4 µM | Malme-3M 42.2 µM | NCI-H522 36.9 µM | OVCAR-3 76.6 µM | PC-3 33.7 µM | RXF 393 21.1 µM | SN12C 43.4 µM | SNB-75 27.4 µM | SW-620 37 µM | U-251 41 µM

COc1cccc(CCNc2c(C#N)c3n(c4ccccc4[n+]3C)c3ncccc23)c1
inactive: 786-0 1.76 µM | A549 1.82 µM | BT-549 23.3 µM | HCT-116 1.77 µM | HOP-92 27.7 µM | K562 2.39 µM | M14 1.76 µM | MDA-MB-435 2.52 µM | MDA-N 5.2 µM | Malme-3M 17.5 µM | NCI-H460 1.34 µM | NCI-H522 4.16 µM | OVCAR-3 19.6 µM | PC-3 14.4 µM | RXF 393 13.5 µM | SN12C 15.9 µM | SNB-75 5.96 µM | SW-620 2.47 µM | U-251 2.37 µM

CN(C)CCCNc1c2c(=O)n(C)c(=O)nc-2n(C)c2ccccc12
inactive: 786-0 5.68 µM | A549 4.74 µM | BT-549 12.7 µM | HCT-116 3.69 µM | HOP-92 17 µM | K562 4.8 µM | M14 5.02 µM | MDA-MB-435 3.94 µM | MDA-N 4.2 µM | Malme-3M 3.11 µM | NCI-H460 2.85 µM | NCI-H522 2.45 µM | OVCAR-3 1.25 µM | PC-3 4.08 µM | RXF 393 7.8 µM | SN12C 4.43 µM | SNB-75 5.15 µM | SW-620 3.7 µM | U-251 3.26 µM

Nc1ncnc2c1ncn2[C@H]1CC[C@@H](NO)C1
inactive: 786-0 > 100 µM | A549 > 100 µM | BT-549 > 100 µM | HCT-116 > 100 µM | HOP-92 > 100 µM | K562 > 100 µM | M14 > 100 µM | MDA-MB-435 > 100 µM | MDA-N > 100 µM | Malme-3M > 100 µM | NCI-H460 > 100 µM | NCI-H522 > 100 µM | OVCAR-3 > 100 µM | PC-3 > 100 µM | RXF 393 > 100 µM | SN12C > 100 µM | SNB-75 > 100 µM | SW-620 > 100 µM | U-251 > 100 µM

C[C@H](CC[C@@H](O)C(C)(C)O)[C@H]1CC[C@@]2(C)[C@@H]3CC=C4[C@@H](CC[C@H](OC5OC(CO)C(O)C(O)C5O)C4(C)C)[C@]3(C)C(=O)C[C@]12C (some centres undefined)
inactive: 786-0 26.6 µM | A549 37.2 µM | BT-549 56.5 µM | HCT-116 45.3 µM | HOP-92 > 100 µM | K562 18.9 µM | M14 31.1 µM | MDA-MB-435 42.6 µM | MDA-N 32.7 µM | Malme-3M 49.4 µM | NCI-H460 52.4 µM | NCI-H522 37.6 µM | OVCAR-3 65 µM | PC-3 75 µM | RXF 393 35.2 µM | SN12C 69 µM | SNB-75 34.3 µM | SW-620 4.03 µM | U-251 33.6 µM

Cc1nc2[nH]ccn2c(=O)c1CCCl
inactive: 786-0 25.5 µM | A549 45.5 µM | BT-549 25.2 µM | HCT-116 17 µM | HOP-92 21.4 µM | K562 22.9 µM | M14 31.8 µM | MDA-MB-435 > 10 µM | MDA-N 21.9 µM | Malme-3M 25.6 µM | NCI-H460 20.6 µM | NCI-H522 20.7 µM | OVCAR-3 25.2 µM | PC-3 49.7 µM | RXF 393 19.4 µM | SN12C 19.6 µM | SNB-75 39.3 µM | SW-620 17.3 µM | U-251 20.9 µM

C/C=C\C(CC(=O)NCCC1CN(S(=O)(=O)c2ccc(C)cc2)c2ccccc21)CC(=O)OC (centres undefined)
inactive: 786-0 > 100 µM | A549 > 100 µM | BT-549 > 100 µM | HCT-116 > 100 µM | HOP-92 > 100 µM | K562 > 100 µM | M14 > 100 µM | MDA-MB-435 > 100 µM | MDA-N > 100 µM | Malme-3M > 100 µM | NCI-H460 > 100 µM | NCI-H522 > 100 µM | OVCAR-3 > 100 µM | PC-3 > 100 µM | RXF 393 > 100 µM | SNB-75 > 100 µM | SW-620 > 100 µM | U-251 > 100 µM
